Measurements: ChEMBL document CHEMBL4229345, “Inhibition of trypanosome alternative oxidase without its N-terminal mitochondrial targeting signal (ΔMTS-TAO) by cationic and non-cationic 4-hydroxybenzoate and 4-alkoxybenzaldehyde derivatives active against T. brucei and T. congolense” (Eur J Med Chem, 2018)

Assays:
[1] = Inhibition of recombinant N-terminal His6 tagged SUMO-fused Trypanosoma brucei brucei TC221 TAO MTS deletion mutant expressed in Escherichia coli FN102 preincubated for 2 mins followed by ubiquinol-1 addition measured over 2 mins by double beam-dual wavelength UV-spectrophotometry
[2] = Cytotoxicity against HFF cells assessed as reduction in cell viability after 30 hrs by resazurin-based assay; conditions: human
[3] = test system: Trypanosoma brucei brucei; test: Anti-parasitic activity against bloodstream trypomastigote stage of Trypanosoma brucei brucei with AQP triple knock out after 48 hrs by resazurin-based assay; format: functional, organism-based
Trypanosoma brucei = test: Anti-parasitic activity against bloodstream trypomastigote stage of pentamidine/diminazene/melaminophenyl arsenical resistant Trypanosoma brucei B48 after 48 hrs by resazurin-based assay; format: functional, organism-based; conditions: B48, 48 h
[4] = Selectivity index, ratio of CC50 for HFF cells to EC50 for bloodstream trypomastigote stage of wild-type Trypanosoma brucei brucei Lister 427; format: toxicity; conditions: human, read-out: Ratio CC50/EC50
[5] = test system: Trypanosoma brucei brucei; test: Anti-parasitic activity against bloodstream trypomastigote stage of wild-type Trypanosoma brucei brucei Lister 427 after 48 hrs in presence of 5 mM glycerol by resazurin-based assay; format: functional, organism-based; conditions: Lister 427, 48 h
[6] = test system: Trypanosoma brucei brucei; test: Anti-parasitic activity against bloodstream trypomastigote stage of Trypanosoma brucei brucei with AQP2/3-dd knock out after 48 hrs by resazurin-based assay; format: functional, organism-based
[7] = test system: Trypanosoma brucei brucei; test: Anti-parasitic activity against bloodstream trypomastigote stage of wild-type Trypanosoma brucei brucei Lister 427 after 48 hrs by resazurin-based assay; format: functional, organism-based; conditions: Lister 427, 48 h
[8] = Resistance factor, ratio of EC50 for bloodstream trypomastigote stage of pentamidine/diminazene/melaminophenyl arsenical resistant Trypanosoma brucei B48 to EC50 for bloodstream trypomastigote stage of wild-type Trypanosoma brucei brucei Lister 427; format: functional
Trypanosoma congolense [9] = test: Anti-parasitic activity against bloodstream form of Trypanosoma congolense IL3000 after 48 hrs by resazurin-based assay; format: functional, organism-based; conditions: IL3000, 48 h
[10] = Selectivity index, ratio of CC50 for HFF cells to EC50 for bloodstream form of Trypanosoma congolense IL3000; format: toxicity; conditions: human, read-out: Ratio CC50/EC50
[11] = test system: Trypanosoma brucei brucei; test: Resistance factor, ratio of EC50 for bloodstream trypomastigote stage of Trypanosoma brucei brucei with AQP2/3-dd knock out to EC50 for bloodstream trypomastigote stage of wild-type Trypanosoma brucei brucei Lister 427; format: functional
[12] = test system: Trypanosoma brucei brucei; test: Resistance factor, ratio of EC50 for bloodstream trypomastigote stage of Trypanosoma brucei brucei AQP triple knock out to EC50 for bloodstream trypomastigote stage of wild-type Trypanosoma brucei brucei Lister 427; format: functional
[13] = test system: Trypanosoma brucei brucei; test: Resistance factor, ratio of EC50 for bloodstream trypomastigote stage of wild-type Trypanosoma brucei brucei Lister 427 in presence of 5 mM glycerol to EC50 for bloodstream trypomastigote stage of wild-type Trypanosoma brucei brucei Lister 427; format: functional
[14] = Selectivity index, ratio of CC50 for HEK cells to EC50 for bloodstream trypomastigote stage of wild-type Trypanosoma brucei brucei Lister 427; format: toxicity; conditions: human, read-out: Ratio CC50/EC50
[15] = Cytotoxicity against HEK cells assessed as reduction in cell viability after 30 hrs by resazurin-based assay; conditions: human
[16] = Competitive inhibition of recombinant N-terminal His6 tagged SUMO-fused Trypanosoma brucei brucei TC221 TAO MTS deletion mutant expressed in Escherichia coli FN102 preincubated for 2 mins followed by ubiquinol-1 addition measured over 2 mins by Lineweaver-Burk plot analysis
Trypanosoma congolense [17] = test: Potency index, ratio of diminazene EC50 to test compound EC50 for anti-parasitic activity against bloodstream form of Trypanosoma congolense IL3000; format: functional
[18] = test system: Trypanosoma brucei brucei; test: Potency index, ratio of diminazene EC50 to test compound EC50 for anti-parasitic activity against bloodstream trypomastigote stage of wild-type Trypanosoma brucei brucei Lister 427; format: functional
[19] = Half life in mouse serum by LC/MS analysis; format: ADME, cell-free

| Structure (SMILES) | IC50 [1] [µM] | CC50 at 30 h [2] [µM] | EC50 [3] [µM] | EC50 (Trypanosoma brucei) [µM] | selectivity ratio [4] | EC50 [5] [µM] | EC50 [6] [µM] | EC50 [7] [µM] | Ratio EC50 [8] | EC50 (Trypanosoma congolense [9]) [µM] | selectivity ratio [10] | Ratio EC50 [11] | Ratio EC50 [12] | Ratio EC50 [13] | selectivity ratio [14] | CC50 at 30 h [15] [µM] | Ki [16] [µM] | Ratio EC50 (Trypanosoma congolense [17]) | Ratio EC50 [18] | half-life [19] [min] |
| --- | --- | --- | --- | --- | --- | --- | --- | --- | --- | --- | --- | --- | --- | --- | --- | --- | --- | --- | --- | --- |
| O=Cc1ccc(OCCCCCCCCCCCCCC[n+]2cccc3ccccc32)cc1O.[Br-] | 1.23 | > 200 | 1.08 | 2.35 | > 114 | 1.23 | 0.95 | 1.75 | 1.3 | 2.1 | > 95 | 0.54 | 0.62 | 0.7 | – | – | – | – | – | – |
| O=C(OCCCCCCCCCCCCCCCCOC(=O)c1ccc(O)cc1O)c1ccc(O)cc1O | 0.0123 | – | 9.3 | 31.9 | – | 12.4 | 14.3 | 26.7 | 1.2 | > 100 | – | 0.54 | 0.35 | 0.46 | > 15 | > 400 | – | – | – | – |
| O=C(OCCCCCCCCCCCCCCBr)c1ccc(O)cc1F | 0.03 | > 200 | 7 | 17.3 | > 13 | 7.19 | 6.8 | 14.7 | 1.2 | > 50 | – | 0.46 | 0.48 | 0.49 | – | – | – | – | – | – |
| O=C(OCCCCCCCCCCCCOC(=O)c1ccc(O)cc1O)c1ccc(O)cc1O | 0.007 | – | 8.9 | 33.6 | – | 13.6 | 26.7 | 32.9 | 1 | > 100 | – | 0.81 | 0.27 | 0.41 | > 12 | > 400 | – | – | – | – |
| O=COCCCCCCCCCCOC(=O)c1ccc(O)cc1O | 0.15 | – | 15.6 | – | – | 17.5 | 27.4 | – | 0.69 | – | – | 0.86 | 0.49 | 0.55 | > 12 | > 400 | – | – | – | – |
| Cc1cc(O)ccc1C(=O)OCCCCCCCCCCCCCCOC=O | 0.0011 | > 200 | 1.8 | 4.44 | > 48 | 7.8 | 1.4 | 4.1 | 1.1 | – | – | 0.34 | 0.45 | 1.92 | – | – | 0.0041 | – | – | – |
| N=C(N)c1ccc(OCCCCCOc2ccc(C(=N)N)cc2)cc1 [PENTAMIDINE] | – | – | 0.064 | – | – | – | 0.047 | 0.0033 | 285 | – | – | 14.1 | 19.2 | 1.14 | – | – | – | – | – | – |
| O=C(OCCCCCCCCCCCCCCBr)c1ccc(O)cc1O | 0.0108 | – | – | – | – | – | – | – | – | – | – | – | – | – | – | – | – | – | – | – |
| Cc1cc(O)ccc1C(=O)O | 112 | – | – | – | – | – | – | – | – | – | – | – | – | – | – | – | – | – | – | – |
| Cc1cc(O)ccc1C(=O)OCCCCCCCCCCCCCCBr | 0.007 | > 200 | 7.2 | 14.4 | > 13 | 7.5 | 7.1 | 14.4 | 1 | – | – | 0.49 | 0.5 | 0.52 | – | – | – | – | – | – |
| O=C(OCCCCCCCCCCCCCCCC[P+](c1ccccc1)(c1ccccc1)c1ccccc1)c1ccc(O)cc1O | > 5 | – | – | – | – | – | – | – | – | – | – | – | – | – | – | – | – | – | – | – |
| O=COCCCCCCCCCCCCCCOc1ccc(C=O)c(O)c1 | 0.33 | > 200 | 1.82 | 3.6 | > 52 | 1.8 | 1.4 | 3.8 | 1 | – | – | 0.38 | 0.48 | 0.48 | – | – | – | – | – | – |
| O=C(OCCCCBr)c1ccc(O)cc1O | 0.45 | > 200 | 400 | 400 | – | 400 | 400 | 400 | – | – | – | – | – | – | – | – | – | – | – | – |
| O=C(O)c1ccc(O)cc1O [2,4-DIHYDROXYBENZOIC ACID] | 116 | – | 16.6 | – | – | – | – | – | – | – | – | – | 0.96 | – | – | – | – | – | – | – |
| N=C(N)c1ccc(/N=N/Nc2ccc(C(=N)N)cc2)cc1 [DIMINAZENE] | – | – | – | – | – | – | – | – | 12 | 0.2 | – | – | – | – | – | – | – | – | – | – |
| O=C(OCCCCCCCCCCCCCC[P+](c1ccccc1)(c1ccccc1)c1ccccc1)c1ccc(O)cc1F.[Br-] | 0.03 | > 200 | 0.00037 | 0.00075 | > 344000 | 0.00039 | 0.00025 | 0.00058 | 1.3 | 0.018 | > 11000 | 0.43 | 0.64 | 0.66 | – | – | – | 5 - 40 | 5 - 40 | < 15 |
| O=C(OCCCCCCCCCCCCCCCCBr)c1ccc(O)cc1O | 0.0124 | – | 5.1 | – | – | 11.1 | 14.5 | – | 1.07 | – | – | 0.32 | 0.11 | 0.24 | > 8 | > 400 | – | – | – | – |
| O=C(OCCCCCCCCCCCCCCOC(=O)c1ccc(O)cc1O)c1ccc(O)cc1O | 0.0157 | – | 14.8 | 36.6 | – | 15.9 | 28.2 | 42.1 | 0.87 | > 100 | – | 0.67 | 0.35 | 0.38 | > 9 | > 400 | – | – | – | – |
| O=C(OCCCCCCCCCCCCCC[P+](c1ccccc1)(c1ccccc1)c1ccccc1)c1ccc(O)cc1O | 1.46 | – | – | – | – | – | – | – | – | – | – | – | – | – | – | – | – | – | – | – |
| O=Cc1ccc(OCCCCCCCCCCCCCCOc2ccc(C=O)c(O)c2)cc1O | 0.24 | > 200 | 400 | 400 | – | 400 | 400 | 400 | – | 400 | – | – | – | – | – | – | – | – | – | – |
| Cc1cc(O)cc(O)c1C(=O)O [ORSELLINIC ACID] | 143 | – | – | – | – | – | – | – | – | – | – | – | – | – | – | – | – | – | – | – |
| O=C(OCCCCCCCCCCCCCCCC[n+]1cccc2ccccc21)c1ccc(O)cc1O | > 5 | – | – | – | – | – | – | – | – | – | – | – | – | – | – | – | – | – | – | – |
| Cc1cc(O)cc(O)c1C(=O)OCCCCCCCCCCCCCCBr | 0.007 | > 200 | 6.8 | 15.6 | > 13 | 7.71 | 7.3 | 14.6 | 1.1 | > 100 | – | 0.5 | 0.47 | 0.53 | – | – | – | – | – | – |
| O=Cc1ccc(OCCCCCCCCCCCCCCBr)cc1O | 0.073 | > 200 | 7.9 | 15.5 | > 11 | 10.7 | 8.4 | 17.6 | 0.9 | 42.6 | > 4.6 | 0.48 | 0.45 | 0.61 | – | – | – | – | – | – |
| O=C(OCCCCCCBr)c1ccc(O)cc1O | 0.24 | > 200 | 12.1 | 20.5 | > 11 | 12.1 | 11.6 | 17.7 | 1.2 | 72.9 | > 2.7 | 0.65 | 0.68 | 0.68 | – | – | – | – | – | – |
| O=C(O)c1ccc(O)cc1F | 115 | – | – | – | – | – | – | – | – | – | – | – | – | – | – | – | – | – | – | – |
| Cc1cc(O)ccc1C(=O)OCCCCCCCCCCCCCCOC(=O)c1ccc(O)cc1C | 0.013 | > 200 | 400 | 400 | – | 400 | 400 | 400 | – | 400 | – | – | – | – | – | – | – | – | – | – |
| O=C(NO)c1ccccc1O [SALICYLHYDROXAMIC ACID] | – | – | 8.9 | – | – | – | 31.9 | – | – | – | – | – | – | – | – | – | – | – | – | – |
